Experimental data from PubChem BioAssay AID1918955 (Molecular Pharmacology Branch, DTP, NCI, 2023).
Values joined by “and” are separate entries in the source; they are usually repeats but may differ in a detail not shown here. Identical values can stand only once.

Tested on: NCI/ADR-RES complex spheroid viability
Assay: Anticancer human tumor NCI/ADR-RES cell line growth inhibition;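 note: spheroids exposed to compounds for 7 days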;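 for viability, T/C: 100% = DMSO vehicle treated spheroids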
Details: for viability, T/C: stronger effect = lower value
How it was run: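 Drug combinations with the LSD1 inhibitor iadademstat tested on tumor cells co-cultured as spheroids with endothelial cells and mesenchymal stem cells. Concentrations descended in half-log increments from clinical Cmax or 10 microM.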

[1] = curve of first compound, second compound 0.1 µM
[2] = curve of first compound, second compound 0.316 µM
[3] = curve of first compound, second compound 1 µM
[4] = curve of first compound, second compound 3.16 µM
[5] = curve of first compound, second compound 10 µM
[6] = second compound 0.1 µM, first compound 0.0316 µM
[7] = second compound 0.1 µM, first compound 0.1 µM
[8] = second compound 0.316 µM, first compound 0.0316 µM
[9] = second compound 0.316 µM, first compound 0.1 µM
[10] = second compound 1 µM, first compound 0.0316 µM
[11] = second compound 1 µM, first compound 0.1 µM
[12] = second compound 3.16 µM, first compound 0.0316 µM
[13] = second compound 3.16 µM, first compound 0.1 µM
[14] = second compound 10 µM, first compound 0.0316 µM
[15] = second compound 10 µM, first compound 0.1 µM

## NS(=O)(=O)OCC1CC(n2ccc3c(NC4CCc5ccccc54)ncnc32)CC1O (configuration not stated) + NC1CC1c1ccc(-c2cccc(O)c2)cc1
[1]
  IC50: 1130 nM
[2]
  IC50: 1030 nM
[3]
  IC50: 1160 nM
[4]
  IC50: 1110 nM
[5]
  IC50: 1130 nM
Second compound 0.1 µM, first compound 0.00949 µM
  viability, T/C: 99.2%
Second compound 0.1 µM, first compound 0.03 µM
  viability, T/C: 90.5%
Second compound 0.1 µM, first compound 0.0949 µM
  viability, T/C: 92.1%
Second compound 0.1 µM, first compound 0.3 µM
  viability, T/C: 78.4%
Second compound 0.1 µM, first compound 0.949 µM
  viability, T/C: 55%
Second compound 0.1 µM, first compound 3 µM
  viability, T/C: 20.6%
Second compound 0.316 µM, first compound 0.00949 µM
  viability, T/C: 96.7%
Second compound 0.316 µM, first compound 0.03 µM
  viability, T/C: 100%
Second compound 0.316 µM, first compound 0.0949 µM
  viability, T/C: 85.9%
Second compound 0.316 µM, first compound 0.3 µM
  viability, T/C: 77.5%
Second compound 0.316 µM, first compound 0.949 µM
  viability, T/C: 51.6%
Second compound 0.316 µM, first compound 3 µM
  viability, T/C: 22.2%
Second compound 1 µM, first compound 0.00949 µM
  viability, T/C: 98.5%
Second compound 1 µM, first compound 0.03 µM
  viability, T/C: 88.4%
Second compound 1 µM, first compound 0.0949 µM
  viability, T/C: 86.7%
Second compound 1 µM, first compound 0.3 µM
  viability, T/C: 78.6%
Second compound 1 µM, first compound 0.949 µM
  viability, T/C: 54.5%
Second compound 1 µM, first compound 3 µM
  viability, T/C: 23.2%
Second compound 3.16 µM, first compound 0.00949 µM
  viability, T/C: 96.8%
Second compound 3.16 µM, first compound 0.03 µM
  viability, T/C: 94.8%
Second compound 3.16 µM, first compound 0.0949 µM
  viability, T/C: 86.3%
Second compound 3.16 µM, first compound 0.3 µM
  viability, T/C: 77%
Second compound 3.16 µM, first compound 0.949 µM
  viability, T/C: 54.3%
Second compound 3.16 µM, first compound 3 µM
  viability, T/C: 22.2%
Second compound 10 µM, first compound 0.00949 µM
  viability, T/C: 92%
Second compound 10 µM, first compound 0.03 µM
  viability, T/C: 89.9%
Second compound 10 µM, first compound 0.0949 µM
  viability, T/C: 81%
Second compound 10 µM, first compound 0.3 µM
  viability, T/C: 75.1%
Second compound 10 µM, first compound 0.949 µM
  viability, T/C: 53.3%
Second compound 10 µM, first compound 3 µM
  viability, T/C: 27%

## O=C(c1cc(Cc2n[nH]c(=O)c3ccccc23)ccc1F)N1CCN(C(=O)C2CC2)CC1 + NC1CCC(NC2CC2c2ccccc2)CC1
[1]
  IC50: > 10000 nM
[2]
  IC50: > 10000 nM
[3]
  IC50: > 10000 nM
[4]
  IC50: > 10000 nM
[5]
  IC50: > 10000 nM
[6]
  viability, T/C: 99.8%
[7]
  viability, T/C: 97.5%
Second compound 0.1 µM, first compound 0.316 µM
  viability, T/C: 104%
Second compound 0.1 µM, first compound 1 µM
  viability, T/C: 102%
Second compound 0.1 µM, first compound 3.16 µM
  viability, T/C: 102%
Second compound 0.1 µM, first compound 10 µM
  viability, T/C: 87.6%
[8]
  viability, T/C: 109%
[9]
  viability, T/C: 101%
Second compound 0.316 µM, first compound 0.316 µM
  viability, T/C: 105%
Second compound 0.316 µM, first compound 1 µM
  viability, T/C: 111%
Second compound 0.316 µM, first compound 3.16 µM
  viability, T/C: 96.2%
Second compound 0.316 µM, first compound 10 µM
  viability, T/C: 101%
[10]
  viability, T/C: 100%
[11]
  viability, T/C: 108%
Second compound 1 µM, first compound 0.316 µM
  viability, T/C: 112%
Second compound 1 µM, first compound 1 µM
  viability, T/C: 107%
Second compound 1 µM, first compound 3.16 µM
  viability, T/C: 105%
Second compound 1 µM, first compound 10 µM
  viability, T/C: 91.5%
[12]
  viability, T/C: 99.1%
[13]
  viability, T/C: 102%
Second compound 3.16 µM, first compound 0.316 µM
  viability, T/C: 97.4%
Second compound 3.16 µM, first compound 1 µM
  viability, T/C: 96%
Second compound 3.16 µM, first compound 3.16 µM
  viability, T/C: 104%
Second compound 3.16 µM, first compound 10 µM
  viability, T/C: 87.3%
[14]
  viability, T/C: 94.8%
[15]
  viability, T/C: 97.4%
Second compound 10 µM, first compound 0.316 µM
  viability, T/C: 93.1%
Second compound 10 µM, first compound 1 µM
  viability, T/C: 88.8%
Second compound 10 µM, first compound 3.16 µM
  viability, T/C: 92.5%
Second compound 10 µM, first compound 10 µM
  viability, T/C: 91.7%

## O=C(c1cc(Cc2n[nH]c(=O)c3ccccc23)ccc1F)N1CCN(C(=O)C2CC2)CC1
Compound 0.0316 µM
  viability, T/C: 102%
Compound 0.1 µM
  viability, T/C: 102% and 99.6%
Compound 0.316 µM
  viability, T/C: 104% and 102%
Compound 1 µM
  viability, T/C: 105% and 97.3%
Compound 3.16 µM
  viability, T/C: 90.7% and 95.4%
Compound 10 µM
  viability, T/C: 89.6% and 85%
Curve of compound
  IC50: > 10000 nM

## CC[C@@]1(O)C(=O)OCc2c1cc1n(c2=O)Cc2cc3c(CN(C)C)c(O)ccc3nc2-1 + NC1CC1c1ccc(-c2cccc(O)c2)cc1
[1]
  IC50: 8.38 nM
[2]
  IC50: 8.87 nM
[3]
  IC50: 10.5 nM
[4]
  IC50: 13.3 nM
[5]
  IC50: 13.2 nM
Second compound 0.1 µM, first compound 0.000316 µM
  viability, T/C: 110%
Second compound 0.1 µM, first compound 0.001 µM
  viability, T/C: 101%
Second compound 0.1 µM, first compound 0.00316 µM
  viability, T/C: 84.9%
Second compound 0.1 µM, first compound 0.01 µM
  viability, T/C: 43.3%
[6]
  viability, T/C: 13.4%
[7]
  viability, T/C: 2.49%
Second compound 0.316 µM, first compound 0.000316 µM
  viability, T/C: 111%
Second compound 0.316 µM, first compound 0.001 µM
  viability, T/C: 103%
Second compound 0.316 µM, first compound 0.00316 µM
  viability, T/C: 86.2%
Second compound 0.316 µM, first compound 0.01 µM
  viability, T/C: 45.2%
[8]
  viability, T/C: 14.9%
[9]
  viability, T/C: 2.48%
Second compound 1 µM, first compound 0.000316 µM
  viability, T/C: 101%
Second compound 1 µM, first compound 0.001 µM
  viability, T/C: 98.9%
Second compound 1 µM, first compound 0.00316 µM
  viability, T/C: 83.5%
Second compound 1 µM, first compound 0.01 µM
  viability, T/C: 52.2%
[10]
  viability, T/C: 16.3%
[11]
  viability, T/C: 2.84%
Second compound 3.16 µM, first compound 0.000316 µM
  viability, T/C: 97%
Second compound 3.16 µM, first compound 0.001 µM
  viability, T/C: 94%
Second compound 3.16 µM, first compound 0.00316 µM
  viability, T/C: 81.2%
Second compound 3.16 µM, first compound 0.01 µM
  viability, T/C: 60.1%
[12]
  viability, T/C: 23.7%
[13]
  viability, T/C: 4.48%
Second compound 10 µM, first compound 0.000316 µM
  viability, T/C: 95.1%
Second compound 10 µM, first compound 0.001 µM
  viability, T/C: 82.3%
Second compound 10 µM, first compound 0.00316 µM
  viability, T/C: 74.2%
Second compound 10 µM, first compound 0.01 µM
  viability, T/C: 57.1%
[14]
  viability, T/C: 31.4%
[15]
  viability, T/C: 9.59%
